Measurements reported in US5100881A (priority 1989, dated 1992).

How the values were obtained:
P 388 leukemia = test system: P 388 leukemia; design: species or system mice; settings: mouse, in vivo
L1210 cells = assay: cells; format: cell-based; settings: Mus musculus, L1210, 48 h, read-out: IC50 (concentration which 50% inhibits the proliferation of the control cells)

| SMILES | SURVIVORS 30 days (P 388 leukemia) | SURVIVORS 60 days (P 388 leukemia) | T/C % (mean survival time test group over untreated control group) (P 388 leukemia) [%] | IC50 (L1210 cells) [nM] |
| --- | --- | --- | --- | --- |
| CC[C@]1(O)C[C@@H]2CN(CCc3c([nH]c4ccccc34)[C@@](C(=O)OC)(c3cc4c(cc3OC)N(C)[C@H]3[C@@](O)(C(=O)OC)[C@H](OC(C)=O)[C@]5(CC)C=CCN6CC[C@]43[C@@H]65)C2)C1 [Vinblastine, vinblastine] | 1/6 | 1/6 | 245 | 2.3 ± 0.5 |
| CC[C@]1(O)C[C@H]2CN(CCc3c([nH]c4ccccc34)[C@@](C(=O)OC)(c3cc4c(cc3OC)N(C=O)[C@H]3[C@@](O)(C(=O)OC)[C@H](OC(C)=O)[C@]5(CC)C=CCN6CC[C@]43[C@@H]65)C2)C1 [Vincristine, vincristine] | 0/6 | 0/6 | 192 | 4.2 ± 0.7 |
